One assay concerns the target T1, human MC5R (Homo sapiens, UniProt P33032).
T1 construct: purchased Perkin Elmer RBXMC5M400UA
Kind of assay: Human MC5R radioligand binding assay ([125I] NDP-MSH displacement, hMC5R membranes). To be noted: hMC5R assay as in Example 102; compounds tested as trifluoroacetate or hydrochloride salts, or as free base. In short, it runs like this:
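Bound ligand collected by filtration on PEI-soaked GF/A filters and counted. Data fitted to a single-site competition model with fixed Hill coefficient to give EC50.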
T1 sequence (P33032 whole entry): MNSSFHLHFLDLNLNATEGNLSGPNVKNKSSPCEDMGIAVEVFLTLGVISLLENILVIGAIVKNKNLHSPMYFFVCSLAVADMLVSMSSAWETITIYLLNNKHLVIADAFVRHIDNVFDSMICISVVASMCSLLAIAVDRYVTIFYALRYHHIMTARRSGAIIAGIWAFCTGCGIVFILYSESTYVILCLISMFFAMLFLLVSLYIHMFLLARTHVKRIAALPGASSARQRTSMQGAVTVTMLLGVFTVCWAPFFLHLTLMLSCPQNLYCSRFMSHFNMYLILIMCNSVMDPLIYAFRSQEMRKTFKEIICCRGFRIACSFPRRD
Regarding `CCC(CC)CN1CC[C@@H](CNC(=O)c2ccc(Cl)c(C)c2)N[C@@H](CCN)C1=O` [Compound 352, N-(((3S,5S)-3-(2-aminoethyl)-1-(2-ethylbutyl)-2-oxo-1,4-diazepan-5-yl)methyl)-4-chloro-3-methylbenzamide], the IC50 (commonly the midpoint of a concentration-inhibition curve) was below 10000 nM.

In the case of `CCC(CC)CN1CC[C@@H](CNC(=O)c2ccc(F)c(Cl)c2)N[C@@H](CCN)C1=O` [Compound 353, N-(((3S,5S)-3-(2-aminoethyl)-1-(2-ethylbutyl)-2-oxo-1,4-diazepan-5-yl)methyl)-3-chloro-4-fluorobenzamide], the IC50 is below 10000 nM.

As for `CCC(CC)CN1CC[C@@H](CNC(=O)c2ccc(C)c(Cl)c2)N[C@@H](CCN)C1=O` [Compound 354, N-(((3S,5S)-3-(2-aminoethyl)-1-(2-ethylbutyl)-2-oxo-1,4-diazepan-5-yl)methyl)-3-chloro-4-methylbenzamide], the concentration for half-maximal inhibition (IC50) was below 10000 nM.

In the case of `CCC(CC)CN1CC[C@@H](CNC(=O)/C=C/c2ccc(Cl)cc2)N[C@@H](CN2CCCCC2)C1=O` [Compound 355, (E)-3-(4-chlorophenyl)-N-(((3S,5S)-1-(2-ethylbutyl)-2-oxo-3-(piperidin-1-ylmethyl)-1,4-diazepan-5-yl)methyl)acrylamide], the IC50 was below 1000 nM.

For the compound `CC(C)NCC[C@@H]1N[C@H](CCNC(=O)c2ccc(Cl)c(Cl)c2)CCN(CC(c2ccccc2)c2ccccc2)C1=O` [Compound 362, 3,4-dichloro-N-(2-((3S,5R)-1-(2,2-diphenylethyl)-3-(2-(isopropylamino)ethyl)-2-oxo-1,4-diazepan-5-yl)ethyl)benzamide], the IC50 was below 1000 nM.

As for `CC(C)N(CC[C@@H]1N[C@H](CCNC(=O)c2ccc(Cl)c(Cl)c2)CCN(CC(c2ccccc2)c2ccccc2)C1=O)C(C)C` [Compound 363, 3,4-dichloro-N-(2-((3S,5R)-3-(2-(diisopropylamino)ethyl)-1-(2,2-diphenylethyl)-2-oxo-1,4-diazepan-5-yl)ethyl)benzamide], the IC50 is below 10000 nM.

`NC[C@@H]1N[C@H](CNC(=O)c2ccc(Cl)c(Cl)c2)CCN(Cc2cc(Cl)cc(Cl)c2)C1=O` [Compound 364, N-(((3S,5S)-3-(aminomethyl)-1-(3,5-dichlorobenzyl)-2-oxo-1,4-diazepan-5-yl)methyl)-3,4-dichlorobenzamide]: the IC50 is below 1000 nM.

In the case of `NC[C@@H]1N[C@H](CNC(=O)c2ccc3ccccc3c2)CCN(Cc2cc(Cl)cc(Cl)c2)C1=O` [Compound 365, N-(((3S,5S)-3-(aminomethyl)-1-(3,5-dichlorobenzyl)-2-oxo-1,4-diazepan-5-yl)methyl)-2-naphthamide], the IC50 is below 1000 nM.

As to `O=C(NC[C@@H]1CCN(Cc2cc(Cl)cc(Cl)c2)C(=O)[C@H](CN2CCCCC2)N1)c1ccc(Cl)c(Cl)c1` [Compound 367, 3,4-dichloro-N-(((3S,5S)-1-(3,5-dichlorobenzyl)-2-oxo-3-(piperidin-1-ylmethyl)-1,4-diazepan-5-yl)methyl)benzamide], the IC50 was below 1000 nM.

Regarding `O=C(/C=C/c1ccc(Cl)cc1)NC[C@@H]1CCN(Cc2cc(Cl)cc(Cl)c2)C(=O)[C@H](CN2CCCCC2)N1` [Compound 368, (E)-3-(4-chlorophenyl)-N-(((3S,5S)-1-(3,5-dichlorobenzyl)-2-oxo-3-(piperidin-1-ylmethyl)-1,4-diazepan-5-yl)methyl)acrylamide], the IC50 was below 100 nM.

With `CCC(CN1CC[C@@H](CNC(=O)c2ccc(Cl)c(Cl)c2)N[C@@H](CCN)C1=O)c1ccccc1` (stereo partly drawn) [Compound 369, N-(((3S,5S)-3-(2-aminoethyl)-2-oxo-1-(2-phenylbutyl)-1,4-diazepan-5-yl)methyl)-3,4-dichlorobenzamide], the IC50 is below 1000 nM.

Turning to `O=C(NC[C@@H]1CCN(Cc2cc(Cl)cc(Cl)c2)C(=O)[C@H](CN2CCCC2)N1)c1ccc(Cl)c(Cl)c1` [Compound 371, 3,4-dichloro-N-(((3S,5S)-1-(3,5-dichlorobenzyl)-2-oxo-3-(pyrrolidin-1-ylmethyl)-1,4-diazepan-5-yl)methyl)benzamide], the IC50 was below 1000 nM.

In the case of `O=C(NC[C@@H]1CCN(Cc2cc(Cl)cc(Cl)c2)C(=O)[C@H](CN2CCCC2)N1)c1ccc2ccccc2c1` [Compound 372, N-(((3S,5S)-1-(3,5-dichlorobenzyl)-2-oxo-3-(pyrrolidin-1-ylmethyl)-1,4-diazepan-5-yl)methyl)-2-naphthamide], the IC50 was below 1000 nM.

As to `CCN(CC)CC[C@@H]1N[C@H](CNC(=O)/C=C/c2ccc(Cl)cc2)CCN(CC(c2ccccc2)c2ccccc2)C1=O` [Compound 378, (E)-3-(4-chlorophenyl)-N-(((3S,5S)-3-(2-(diethylamino)ethyl)-1-(2,2-diphenylethyl)-2-oxo-1,4-diazepan-5-yl)methyl)acrylamide], the IC50 was below 100 nM.

`CCC(CN1CCC(CNC(=O)c2ccc3cc(Cl)ccc3c2)N[C@@H](C2CCNCC2)C1=O)c1ccccc1` (stereo partly drawn) [Compound 472, (S)-6-chloro-N-((2-oxo-1-(2-phenylbutyl)-3-(piperidin-4-yl)-1,4-diazepan-5-yl)methyl)-2-naphthamide]: the IC50 is below 100 nM.

As to `CCC(CN1CCC(CNC(=O)c2ccc3cc(Cl)ccc3c2)N[C@@H](C2CCN(CCC(C)C)CC2)C1=O)c1ccccc1` (stereo partly shown) [Compound 473], the IC50 was below 100 nM.

Staying with this assay, now noted: hMC5R binding assay as in Example 102; compounds tested as trifluoroacetate or hydrochloride salts, or as free base.
Consider `CC[C@H](CN1CC[C@H](CNC(=O)c2ccc3cc(Cl)ccc3c2)N[C@H](CC(C)(C)N)C1=O)c1ccccc1` [Compound 494, N-(((3R,5R)-3-(2-amino-2-methylpropyl)-2-oxo-1-((S)-2-phenylbutyl)-1,4-diazepan-5-yl)methyl)-6-chloro-2-naphthamide], for which the IC50 was below 10000 nM.

On to `CC[C@H](CN1CC[C@@H](CNC(=O)c2ccc3cc(Cl)ccc3c2)N[C@@H](CCN2CCCCC2)C1=O)c1ccccc1` [Compound 569, 6-chloro-N-(([5-^13C,4-^15N](3S,5S)-2-oxo-1-((S)-2-phenylbutyl)-3-(2-(piperidin-1-yl)ethyl)-1,4-diazepan-5-yl)[^13C]methyl)-2-naphthamide], for which the IC50 was below 10 nM.

Take `CC[C@@H](CN1CC[C@H](CNC(=O)c2ccc3cc(Cl)ccc3c2)N[C@H](CCN2CCCCC2)C1=O)c1ccccc1` [Compound 580, 6-chloro-N-(((3R,5R)-2-oxo-1-((R)-2-phenylbutyl)-3-(2-(piperidin-1-yl)ethyl)-1,4-diazepan-5-yl)methyl)-2-naphthamide]: the IC50 is below 1000 nM.

`CC[C@H](CN1CC[C@H](CNC(=O)c2ccc3cc(Cl)ccc3c2)N[C@@H](CCN2CCCCC2)C1=O)c1ccccc1` [Compound 581, 6-chloro-N-(((3S,5R)-2-oxo-1-((S)-2-phenylbutyl)-3-(2-(piperidin-1-yl)ethyl)-1,4-diazepan-5-yl)methyl)-2-naphthamide]: the IC50 was below 100 nM.

On to `CC[C@@H](CN1CC[C@H](CNC(=O)c2ccc3cc(Cl)ccc3c2)N[C@@H](CCN2CCCCC2)C1=O)c1ccccc1` [Compound 583, 6-chloro-N-(((3S,5R)-2-oxo-1-((R)-2-phenylbutyl)-3-(2-(piperidin-1-yl)ethyl)-1,4-diazepan-5-yl)methyl)-2-naphthamide], for which the IC50 is below 1000 nM.

Consider `CC[C@H](CN1CC[C@H](CNC(=O)c2ccc3cc(Cl)ccc3c2)N[C@H](CCN2CCCCC2)C1=O)c1ccccc1` [Compound 585, 6-chloro-N-(((3R,5R)-2-oxo-1-((S)-2-phenylbutyl)-3-(2-(piperidin-1-yl)ethyl)-1,4-diazepan-5-yl)methyl)-2-naphthamide], for which the IC50 is below 10000 nM.
